# Where “and” joins values, the source holds several entries; their conditions need not be identical. Equal entries are not always repeated. Where two headings read alike, the source gives them in different places.
# Columns and labels:
# hypogonadism in men = assay: Study of testosterone cypionate injections every 7 days (with anastrozole) in men, followed by blood work until stabilization; format: in vivo, human; details: for TT at week 5 / TT once stable: average total testosterone; for increase in PSA from start of treatment to stabilization / PSA level at stabilization / Hemoglobin at 5 weeks / Hemoglobin at stabilization: average; for average decrease in A1c: TC and anastrozole dosing
# Description: Patient hemoglobin and total testosterone (TT) levels were used in this Study to determine when a patient becomes “stable” on treatment. The terms “stable”, “stability”, “stabilized” and “stabilization” are defined in this Study as “the point at which a patient's symptoms have resolved, polycythemia has stopped, and TC dosage has remained consistent for at least 3 months.” Polycythemia associated with testosterone replacement therapy (TRT) has commonly been controlled through frequent patient blood donation. […] Several TT “normal” ranges can be found in the literature. For example, the Endocrine Society identifies the normal range for TT levels in males to be 264-916 ng/dL (1,17). However, LabCorp Diagnostics has used the previously accepted “normal” range of 348-1197 ng/dL until 2017 and Quest Diagnostics uses a reference range of 250-1110 ng/dL.
# Patients' responses to TC injections administered every 7 days were tracked and the resulting effects of TC dosing on cholesterol, A1c, and PSA levels were documented once stable TT levels were reached.
# Subjects: Two cohorts were studied. The two cohorts studied were males that had previously been on TRT and males who had never been on any form of TRT. Blood work was collected from all patients at their initial visit, after 1 month of treatment, after 3 months of treatment, and then at 6 months, 9 months, 12 months, etc. as patients continued treatment. Data was collected for each cohort including the length of time that it took to stabilize on treatment and the average dosage injected weekly once patients had reached stabilization.
# However, in this Study TC injections were administered every 7 days, and blood samples were collected at 7 days post-TC injection and after at least 4 consecutive weeks of injections. […] Collecting blood samples at the 4-week mark provides more consistent, accurate, and useful information regarding the TT blood level than if the samples are collected earlier.
# Blood samples were then sent to an outsourced laboratory, Lab Tech Diagnostics. Samples were drawn at the patient's initial visit, after their first 4 consecutive TC injections, after 3 months of treatment, and at 3-month intervals thereafter. Testosterone, estradiol, and hemoglobin levels were tracked with every blood sample. PSA and cholesterol levels were checked every 3 months. A1c levels were checked with initial blood work, and then once per year if A1c was within normal limits (WNL) or every 3 months if A1c was >5.6.
# Given, the primary goal was to determine a stabilization point such that the patient achieved maximum benefit with minimal side effects (e.g., elimination of polycythemia) from the treatment, the challenge was to identify a TC dose at which the patient's hemoglobin stopped increasing. […] Patients were advised to start 81 mg aspirin daily if their hemoglobin started increasing after starting treatment. […] Dosage adjustments of TC were made in 20 mg (0.1 ml) increments. Assessment of new dosages were not made until after four consecutive injections at the new dose and at 7 days after their last injection. After analysis of data, there were notable similarities in the Total Testosterone, estradiol, and hemoglobin levels once patients reached stabilization on treatment. There were also differences seen between patients that had been on TRT in the past through other clinics and those that started treatment with our clinic. Patients who had previously been on TRT took longer to stabilize on therapy than those who had never been on TRT.
# [1] = well-known value; cited from earlier work
# [2] = in humans; cited from earlier work
# [3] = patients never on TRT, starting TT level 347.77 ng/dl
# [4] = patients previously on TRT, starting TT level 479.83 ng/dl
# [5] = patients never on TRT, initial 15.06 g/dl
# [6] = patients previously on TRT, initial 15.78 g/dl
smiles,measurement,setting,value
"C[C@]12CC[C@H]3[C@@H](CCC4=CC(=O)CC[C@@]43C)[C@@H]1CC[C@@H]2OC(=O)CCC1CCCC1 [TC, testosterone cypionate]",symptoms at low 7-day testosterone level,hypogonadism in men; 7-day testosterone level <600,almost all patients were still experiencing symptoms of testicular hypofunction
same,patients who developed prostate cancer,hypogonadism in men; 60 patients in the study,No patients
same,common increase in cholesterol levels seen with excessive TC dosing,hypogonadism in men; TC and anastrozole dosing as described in the study,Elimination
same,side effects seen at higher TT levels,hypogonadism in men; TT levels >1050,"acne, aggression, erectile dysfunction, difficulty losing weight, extremely elevated estradiol levels, hair loss, and increased body hair"
same,TT level at which patients stabilized (range),"hypogonadism in men; all patients in the study, drawn 7 days after injection",605 to 1051 ng/dL
same,TT at week 5,hypogonadism in men; [3],705.43 ng/dL
same,TT once stable,hypogonadism in men; [3],794.53 ng/dL
same,TT at week 5,hypogonadism in men; [4],805.9 ng/dL and 805.90 ng/dL
same,TT once stable,hypogonadism in men; [4],780.1 ng/dL and 780.10 ng/dL
same,increase in PSA from start of treatment to stabilization,hypogonadism in men; patients never on TRT,26.89%
same,PSA level at stabilization,"hypogonadism in men; patients never on TRT, initial 0.859 ng/ml",1.090 ng/mL
same,Hemoglobin at 5 weeks,hypogonadism in men; [5],15.33 g/dL
same,Hemoglobin at stabilization,hypogonadism in men; [5],15.79 g/dL
same,increase in PSA from start of treatment to stabilization,hypogonadism in men; patients previously on TRT,14.36%
same,PSA level at stabilization,"hypogonadism in men; patients previously on TRT, initial 1.017 ng/ml",1.163 ng/mL
same,Hemoglobin at 5 weeks,hypogonadism in men; [6],16.22 g/dL
same,Hemoglobin at stabilization,hypogonadism in men; [6],15.70 g/dL
same,side effects when not consistent with both TC and anastrozole dosing,hypogonadism in men; inconsistent timing and dosage,"frequently experienced acne, mood swings, and elevating hemoglobin"
same,polycythemia (need to donate blood),hypogonadism in men; once a patient reached stability on treatment,eliminated
same,chief complaints/symptoms (Table 1) as reported by the patient,hypogonadism in men; once stable on treatment,well-controlled
same,average decrease in A1c,hypogonadism in men; patients not previously on TRT,0.39%
same,average time longer to stabilize,hypogonadism in men; patients previously on TRT in any form versus patients never on TRT,9.7 months
same,average decrease in A1c,hypogonadism in men; patients previously on TRT,0.14%
same,TT level at stabilization (range),hypogonadism in men; patients never on TRT,641 to 1051 ng/dL
same,TT level at stabilization (range),hypogonadism in men; patients previously on TRT,605 to 1020 ng/dL
same,half-life,[1],170 to 190 h
CC(C)(C#N)c1cc(Cn2cncn2)cc(C(C)(C)C#N)c1 [anastrozole],side effects when anastrozole was started at the beginning of treatment,hypogonadism in men; in vivo,frequently experienced hot flashes or joint pains
same,half-life,[2],30 to 60 h
CC(=O)Oc1ccccc1C(=O)O [aspirin],effect of adding aspirin on hemoglobin levels,"hypogonadism in men; 81 mg daily, patients on TC whose hemoglobin started increasing",helped to either decrease hemoglobin levels or slow the rate of increase of hemoglobin levels

# From patent publication US20250073245A1, “COMPOSITION AND METHOD OF TREATING HYPOGONADISM IN MEN” (priority 2023, published 2025)
